Drawing on article PMC10178166, “NanoLuc Luciferase as a Fluorogen-Activating Protein for GFP Chromophore Based Fluorogens” (International Journal of Molecular Sciences, 2023), this text covers Kd for three compounds.

For the test, the target named is T1, NanoLuc (Oplophorus gracilirostris, UniProt Q9GV45, A31E/A60N/A81I/F95D/I117V/K70R/L54V/L99Q/M102K/N193R/P142E/Q151K/Q38R/Q45L/V71I/Y165I).
T1 construct: Engineered 19 kDa subunit variant (NanoLuc, about 171 residues, no signal peptide)
The test is described as follows: spectrofluorometric titration. Type of test: binding. An excerpt:
spectrofluorometric titration on NanoLuc

Where two headings read alike, the source gives them in different places.

T1 sequence (Q9GV45 28-196 with the stated changes): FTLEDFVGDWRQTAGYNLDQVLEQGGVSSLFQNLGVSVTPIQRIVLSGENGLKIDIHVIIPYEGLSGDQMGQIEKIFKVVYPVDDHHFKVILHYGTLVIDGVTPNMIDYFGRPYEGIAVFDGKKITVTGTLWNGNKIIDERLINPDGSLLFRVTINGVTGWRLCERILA

In the case of `O=C1/C(=C/c2ccc[nH]2)N=C(/C=C/c2ccccc2)N1Cc1ccccc1` (mixture of isomers) [4bc], the Kd (read-out: [drawing 2] / [drawing 5] / 4bc) was 590 ± 40 nM.

`O=C1/C(=C/c2ccc[nH]2)N=C(/C=C/c2ccccc2)N1CCc1ccc(O)cc1` (mixture of isomers) [4cc]: the Kd (read-out: [drawing 3] / [drawing 7] / 4cc) was 550 ± 40 nM. Regarding `O=C1/C(=C/c2ccc[nH]2)N=C(/C=C/c2cccs2)N1Cc1ccccc1` (mixture of isomers) [4bh], the Kd (read-out: [drawing 2] / [drawing 4] / 4bh) is 320 ± 20 nM.
